Counter-ions that a name gives are not always drawn.
System: mice
Test: SmartCube in vivo neuropharmacological behavioral assay
Conditions: for minimal effective dose: Mus musculus, ip, read-out: MED (minimal effective dose); for AD: antidepressant, percent probability / AG: analgesic, percent probability / AP: antipsychotic, percent probability / AX: anxiolytic, percent probability / CE: cognitive enhancer, percent probability / HA: hallucinogenic, percent probability / MS: mood stabilizer, percent probability / PS, percent probability / SD: sedative hypnotic, percent probability / SE: side effects, percent probability / UN: uncharacterized CNS activity, percent probability / XG: anxiogenic, percent probability: SmartCube, i.p. 15 min before test, at the MED
Outline: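 Mice dosed i.p. with compound in Pharmasolve (NMP) 15 min before automated video capture of behavior; doses e.g. 0.3–30 mg/kg. Behavioral signature compared with reference-drug classes, giving per-class probability (0–100, 0 = LOQ); MED = lowest dose with ≥50% total activity.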

[1] = dose having 50% or more total activity in SmartCube, i.p.

Compound | minimal effective dose [1] [mg/kg] | AD: antidepressant, percent probability | AG: analgesic, percent probability | AP: antipsychotic, percent probability | AX: anxiolytic, percent probability | CE: cognitive enhancer, percent probability | HA: hallucinogenic, percent probability | MS: mood stabilizer, percent probability | PS, percent probability | SD: sedative hypnotic, percent probability | SE: side effects, percent probability | UN: uncharacterized CNS activity, percent probability | XG: anxiogenic, percent probability | MED (minimal effective dose) [1]
Cc1ccc2c(c1)C1CCC2N1C(C)C (stereo not shown) [Compound 21, 4-Methyl-11-(propan-2-yl)-11-azatricyclo[6.2.1.0^2,7]undeca-2,4,6-triene hydrochloride] | 10 to 30 | ++ (5% ≤ X < 25%) | + (LOQ ≤ X < 5%) | + (LOQ ≤ X < 5%) | ++ (5% ≤ X < 25%) | + (LOQ ≤ X < 5%) | + (LOQ ≤ X < 5%) | + (LOQ ≤ X < 5%) | + (LOQ ≤ X < 5%) | + (LOQ ≤ X < 5%) | ++++ (50% ≤ X <1 00%) | ++ (5% ≤ X < 25%) | + (LOQ ≤ X < 5%) | 
11-[(2E)-Pent-2-en-1-yl]-11-azatricyclo[6.2.1.0^2,7]undeca-2,4,6,9-tetraene hydrochloride [Compound 9] |  | + (LOQ ≤ X < 5%) | + (LOQ ≤ X < 5%) | + (LOQ ≤ X < 5%) | + (LOQ ≤ X < 5%) | + (LOQ ≤ X < 5%) | + (LOQ ≤ X < 5%) | + (LOQ ≤ X < 5%) | + (LOQ ≤ X < 5%) | + (LOQ ≤ X < 5%) | + (LOQ ≤ X < 5%) | + (LOQ ≤ X < 5%) | + (LOQ ≤ X < 5%) | + (30 mg/kg < +)
CC(C)C(C)N1C2CCC1c1ccccc12 (stereo not shown) [Compound 47, 11-(3-Methylbutan-2-yl)-11-azatricyclo[6.2.1.0^2,7]undeca-2,4,6-triene hydrochloride] | 10 to 30 | ++++ (50% ≤ X <1 00%) | + (LOQ ≤ X < 5%) | + (LOQ ≤ X < 5%) | + (LOQ ≤ X < 5%) | + (LOQ ≤ X < 5%) | + (LOQ ≤ X < 5%) | + (LOQ ≤ X < 5%) | + (LOQ ≤ X < 5%) | + (LOQ ≤ X < 5%) | + (LOQ ≤ X < 5%) | ++ (5% ≤ X < 25%) | + (LOQ ≤ X < 5%) | 
COc1ccc2c(c1)C1CCC2N1C(C)C (stereo not shown) [Compound 35, 4-Methoxy-11-(propan-2-yl)-11-azatricyclo[6.2.1.0^2,7]undeca-2,4,6-triene] | 1 to 10 | + (LOQ ≤ X < 5%) | + (LOQ ≤ X < 5%) | + (LOQ ≤ X < 5%) | ++ (5% ≤ X < 25%) | + (LOQ ≤ X < 5%) | + (LOQ ≤ X < 5%) | + (LOQ ≤ X < 5%) | + (LOQ ≤ X < 5%) | +++ (25% ≤ X < 50%) | + (LOQ ≤ X < 5%) | ++ (5% ≤ X < 25%) | + (LOQ ≤ X < 5%) | 
